Measured values as given in PMC3519673, “Discovery of indole tetrafluorophenoxymethylketone-based potent novel small molecule inhibitors of caspase-3” (Organic and Medicinal Chemistry Letters, 2012).
≈ marks a conversion by molar mass, not a printed value. Read-outs that look alike come from different tables or passages of the source.

Tests used:
caspase-3 = target: T1, caspase-3 (Homo sapiens, UniProt P42574); assay: Caspase-3 fluorometric inhibition assay (AC-DEVD-AMC substrate); assay type: biochemical; settings: 10 µM AC-DEVD-AMC, 10 U caspase-3
T1 construct: purchased Sigma-Aldrich C1224
T1 sequence (P42574 29-175 limits assumed): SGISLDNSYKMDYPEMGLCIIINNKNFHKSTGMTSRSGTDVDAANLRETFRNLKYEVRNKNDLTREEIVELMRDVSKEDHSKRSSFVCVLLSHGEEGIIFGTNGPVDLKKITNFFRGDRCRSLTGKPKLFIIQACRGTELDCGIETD
T1 sequence (P42574 176-277 limits assumed): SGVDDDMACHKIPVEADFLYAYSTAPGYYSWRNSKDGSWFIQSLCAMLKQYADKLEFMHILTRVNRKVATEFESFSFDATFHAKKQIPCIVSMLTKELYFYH
Procedure: Fluorescence measurements were done using VICTOR2V 96/384 multilabel plate reader (PerkinElmer Life Sciences, MA, USA) at λex = 360 nm and λem = 460 nm top readout (ex, excitation; em, emission) in Corning black 96-well flat bottom plates. The enzyme activity was measured at 30°C after 30 min. Trans-epithelial resistance (TEER) measurements (for monolayer integrity) were made using instrument from World Precision Instrument (Florida, USA). HPLC (1100 series, Agilent Technologies Inc., CA, USA) was performed on reverse phase column (Zorbax Eclipse XDB C18, 150 × 4.6 mm, 5 μm). LC-MS/MS was performed in multiple reaction monitoring mode using Applied Biosystems API 3200 (Chromos, Singapore) coupled to Agilent Technologies 1100 series HPLC on a reverse phase column (Zorbax Eclipse XDB C18, 50 × 4.6 mm, 5 μm).
Screening of compounds was carried out at two different concentrations (1 and 10 μM). […]
The ability of NCEs to inhibit the activity of human recombinant caspases as well as other proteases was determined using a standard fluorometric microplate assay as described in [1, 10]. […] Activities of the other caspases were determined similarly using the corresponding fluorogenic substrates: 50 U of caspase-1 and 10 μM N-acetyl-Tyr-Val-Ala-Asp-7-amido-4-methylcoumarin. […]

Thrombin = target: T2, Thrombin (Homo sapiens, UniProt P00734); assay: Thrombin counterscreen assay; assay type: biochemical; settings: read-out: % inhibition at 10 µM Thrombin; compound 10 µM
T2 construct: purchased Enzyme Research Laboratories HT1002a
Procedure: (§1) Screening of compounds was carried out at two different concentrations (1 and 10 μM). Selected compounds were subjected to dose response determination in semi-log concentration (serial threefold dilutions) at constant DMSO concentration of 1% with highest compound concentration at 100 μM. Counterscreening against some of proteases, permeability, and CYP450 inhibition studies was carried out for few selected compounds at 10 μM concentration.
(§2) Thrombin assay reaction mixture (100 μl) contained 140 ng of enzyme and 100 μM of substrate (Boc-Glu-Ala-Arg-AMC) in Tris–HCl buffer pH 8.5. Cathepsin-B assay buffer contained 50 mM MES, 0.01% CHAPS, 100 μM of substrate (Z-Phe-Arg-AMC HCl), and 0.1 U of enzyme. […] The enzyme activities were monitored (ex/em 355/460) as a time-course measurement of the increase in fluorescence signal from fluorescently labeled peptide substrate for 120 min at room temperature. Percent inhibition calculation was calculated using following equation:
(§3) Percent inhibition=100−[RFU in test wells/RFU in basal control wells×100]

caspase-1 = target: T3, caspase-1 (Homo sapiens, UniProt P29466); assay: Caspase-1 counterscreen assay; assay type: biochemical; settings: read-out: % inhibition at 10 µM Caspase-1; compound 10 µM
T3 construct: purchased Enzo Life Sciences, Inc. BML-AK701
T3 sequence (P29466 120-297 limits assumed): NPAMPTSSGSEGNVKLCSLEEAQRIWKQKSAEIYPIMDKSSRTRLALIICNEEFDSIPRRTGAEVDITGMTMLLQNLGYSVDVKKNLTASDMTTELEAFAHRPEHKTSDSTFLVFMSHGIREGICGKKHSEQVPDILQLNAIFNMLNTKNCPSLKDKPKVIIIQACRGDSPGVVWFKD
T3 sequence (P29466 317-404 limits assumed): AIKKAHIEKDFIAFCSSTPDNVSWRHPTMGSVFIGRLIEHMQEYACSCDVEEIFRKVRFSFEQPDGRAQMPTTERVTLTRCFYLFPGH
Procedure: as §1
The ability of NCEs to inhibit the activity of human recombinant caspases as well as other proteases was determined using a standard fluorometric microplate assay as described in [1, 10]. The assay buffer contained 25 mM sodium HEPES, 50 mM KCl, 0.1% CHAPS, and 1 mM β-mercaptoethanol, pH7.4. To a reaction mixture (100 μL) containing the above buffer, 10 μM AC-DEVD-AMC and 10 U caspase-3 were added in a black 96-well microplate. Activities of the other caspases were determined similarly using the corresponding fluorogenic substrates: 50 U of caspase-1 and 10 μM N-acetyl-Tyr-Val-Ala-Asp-7-amido-4-methylcoumarin.
as §3

Cathepsin-B = target: T4, Cathepsin-B (Homo sapiens, UniProt P07858); assay: Cathepsin-B counterscreen assay; assay type: biochemical; settings: read-out: % inhibition at 10 µM Cathepsin-B; compound 10 µM
T4 construct: purchased Sigma-Aldrich C0150
Procedure: as §1, §2, §3

[1] = system: Jurkat (human T-cell leukemia) cell line; assay: Anti-apoptotic assay using Jurkat T-cells (staurosporine-induced cell death, resazurin); assay type: cell-based; settings: compound 10 µM, staurosporine 100 nM, 48 h
Procedure: The anti-apototic assay was done as described in [10]. Briefly, Jurkat (human T-cell leukemia) cell line (ATCC) was cultured in RPMI-1640 medium with L-glutamine and supplemented with 10% fetal bovine serum and antibiotic solution. Cells were grown at 37°C in 5% CO2 and 95% air environment at 100% humidity. Cells were plated in 45 μL/well of serum-free medium at 2.5 × 10^5 cells/mL and incubated for 1 h before compound addition. Compound stock solutions were diluted with growth medium and added to the cells to obtain desired concentration. One percent DMSO was used for control wells (without the addition of compounds). […] Cells were further incubated for 120 min, and the fluorescence was measured using the Wallac Victor2V plate reader (PerkinElmer Life Sciences) at 531/589 nm ex/em wavelengths. The percent protection from induced apoptosis was calculated using the following equation: […]
where ΔFl denotes the difference in resazurin fluorescence measured at point 0 and after 120-min incubation with the cells; subscripts t, s, and n are fluorescence in the presence of a test compound + staurosporine, staurosporine alone, and no staurosporine, respectively.
Protection against cellular apoptosis was determined using staurosporine as apoptotic inducer in Jurkat cells (human T-cell leukemia), as described in the ‘Methods’ section. […]

[2] = Kinetic aqueous solubility (shake flask, 96-well); assay type: physicochemical; settings: pH 7.4, aqueous buffer, kinetic from dmso stock
Procedure: After 16 h of incubation, the supernatant was subjected for analysis.

Microsomal stability = assay type: in vitro ADME; settings: mouse liver microsomes, 1 µM, NADPH and UDPGA
Procedure: Mouse liver microsomes (in-house prepared) and pooled human liver microsomes (BD Gentest, CA, USA) were incubated with 1-μM test compounds at 37°C for 15 and 60 min using NADPH and UDPGA as co-factors. The reaction was stopped by the addition of cold acetonitrile, precipitated protein was removed, and the supernatants were analyzed.

[3] = In vivo pharmacokinetic experiment in mice; settings: mouse, plasma, male NMRI mice
Procedure: Pharmacokinetic profiling was carried out using oral and intravenous route (IV) dosing in male NMRI mice. […] The plasma samples were collected at different time points until 8 hr and were stored frozen at −80°C until analysis. Quantitative bio-analysis of the drugs in the plasma samples was done using an LC-MS/MS. Plasma samples were analyzed following protein precipitation of plasma with acetonitrile containing internal standards.
Curve fitting was performed with Prism 5.1 software (GraphPad Software Inc., San Diego, CA) using built-in equation describing corresponding data models. All the other data were mentioned as mean ± standard deviation of triplicates values. PK parameters were determined using WinNonlin 5.2 software.
Compounds were administered to male NMRI mice either as 1 mg/kg intravenous bolus in 1% (v/v) DMA, 10% (w/v) HP-b-CD in normal saline, or orally by gavage at 5 mg/kg in 1% (v/v) DMA, 1% (w/v) Poloxamer 147, and 10% (w/v) HP-b-CD in saline.

IC50 (caspase-3): 35 nM
inhibition at 10 µM (Thrombin): 7%
inhibition at 10 µM (caspase-1): 59%
inhibition at 10 µM (Cathepsin-B): 0%
solubility at 16 h [2]: 145 µM (≈ 82.6 µg/mL)
% stable at 60 min MLM (Microsomal stability): 61%
Vd ([3]; 1 mg/kg IV): 11.8 L/kg
clearance ([3]; 1 mg/kg IV): 150 mL/min/kg
k el ([3]; 1 mg/kg IV, 5 mg/kg PO): 0.000194 s⁻¹
half-life ([3]; 1 mg/kg IV, 5 mg/kg PO, read-out: Beta t1/2 (converted)): 54 min
AUC(0-inf) ([3]; 1 mg/kg IV, read-out: AUC (0-inf) iv): 111 ng·h/mL
Cmax ([3]; 5 mg/kg PO): 113 ng/mL
Tmax ([3]; 5 mg/kg PO): 30 min
bioavailability ([3]; 5 mg/kg PO vs 1 mg/kg IV, read-out: F (oral bioavailability)): 17.9%
AUC(0-inf) ([3]; 5 mg/kg PO, read-out: AUC (0-inf) po): 99.1 ng·h/mL
SMILES: C[C@H](NC(=O)C(=O)Nc1ccccc1C(C)(C)C)C(=O)N[C@@H](CC(=O)O)C(=O)COc1c(F)c(F)cc(F)c1F [IDN6556]
% protection against staurosporine-induced cell death [1]: 73%
